Experimental data: patent US7132279B2, “Epidermal melanocyte culture formulations” (New York Eye & Ear Infirmary, priority 2003, dated 2006)
Where no end group is shown, it is not given here.

Key:
epidermal melanocytes [1] = assay: Melanin production of cultured epidermal melanocytes (optical density at 475 nm); assay type: cell-based, human; settings: 6 days
Protocol: (§1) Three deleted media were used for the study, (i) growth factor-deleted medium, (ii) cAMP-elevating agent deleted medium and (iii) serum-depleted medium. Various testing substances were added to the three deleted media above. These substances include bFGF, HGF, epinephrine and α-MSH. The deleted medium without the test substance was the negative control and the complete medium is the positive control.
Melanocytes cultured as described above were detached by trypsin-EDTA solution and counted in a hemocytometer. The cell suspensions were centrifuged and the pellet was resuspended in 1N NaOH. Melanin concentration was determined by measurement of optical density at 475 nm by a spectrophotometer and compared with a standard curve obtained using synthetic melanin (Sigma, St. Louis, Mo.). Melanin content is expressed as μg/culture or ng/cell (Hu et al., 1995, Invest. Ophthalmol Vis Sci 36:931).

epidermal melanocytes [2] = assay: Migration of cultured epidermal melanocytes in Boyden chambers; assay type: cell-based, human; settings: for Migration of epidermal melanocytes: cAMP deleted medium
Protocol: Cell migration experiments were performed on early passages of cells in 48-well Boyden chambers (Neuroprobe, Bethesda, Md.). Cultured epidermal melanocytes were dissociated with 0.05% trypsin-EDTA (Sigma, St. Louis, Mo.) at 37° C. for 2–3 minutes, neutralized by culture medium with 10% FBS. The cells were centrifuged and resuspended in culture medium. The lower half of the Boyden chambers contained culture medium with or without tested substances. An 8 μm pore cellulose nitrate filter separated the upper and lower wells. Epidermal melanocytes (3×10^4) suspended in 50 μl culture medium (with or without tested substances) were added to the upper wells. The chamber was incubated at 37° C. in a humidified atmosphere at 95% air and 5% CO2. After 6 hours, the filter was removed from the chamber, fixed in 95% ethanol for 5 minutes, and stained with hematoxylin for 1 minute. The number of cells migrating through the filter and attached to the lower surface of the filter was counted (Doerr et al., 1996, J Biol Chem 271:2443; Verdoorn et al., 1986, Arch Ophtalmol 104:1216). Triplicate samples were assayed in all experiments.

epidermal melanocytes [3] = assay: Cell growth of cultured epidermal melanocytes by cell counting (6 days); assay type: cell-based, human
Protocol: as §1
Human skin specimens containing epidermis were obtained from a donor. The specimens were incubated in 0.25% trypsin solution (GIBCO, Carlsbad, Calif.) for 15 minutes at 37° C., followed by a 10 minute incubation with 0.2% EDTA (Sigma, St. Louis, Mo.) solution. The epidermal sheets were gently treated with forceps to dissociate the epidermal cells and to yield an epidermal cell suspension. The epidermal cells were centrifuged and seeded into a 25 cm^2 flask with the culture medium. The flask was incubated at 37° C. in an atmosphere of 95% humidified air and 5% CO2. Geneticin (Sigma, St. Louis, Mo.) was added (100 μg/ml) for three days to eliminate keratinocytes and fibroblasts. The medium was changed every three days. The melanocytes typically reached confluence in two weeks. After reaching confluence, the melanocytes were detached using trypsin-EDTA solution, centrifuged, diluted and seeded for subculture. At the time of transplantation, the melanocytes were detached using trypsin-EDTA solution, centrifuged and resuspended with F12 medium.
Cell counting was used to evaluate the effect of the test substance on growth of epidermal melanocytes. Epidermal melanocytes were plated in 6-well plates at a density of 1×10^5 cells per well with medium. After 24 hours, medium was replaced by the testing media. The media was changed every three days. After six days, the cells were detached with trypsin-EDTA solution and neutralized with culture medium with 10% serum. The cell suspension was centrifuged and the pellet was resuspended in 1 ml F12 medium, 20 μl of the cell suspension was collected into the tip of a Pasteur pipette and transferred to a hemocytometer. The hemocytometer was observed under an optical microscope. Cells falling in four […] areas bounded by three parallel lines were counted. The cell number was obtained using Formula I shown below (Freshney, 1987, Culture of Animal Cells. Wiley-Liss, Inc., New York, 2nd edition). The average of four counts was calculated. Triplicate samples were assayed in all experiments. c=n×10^4 FORMULA I • where c=concentration (cells/ml), n=number of cells counted.

ocular melanocytes = settings: Hu, 2000; cited from earlier work
epidermal melanocytes [4] = settings: Halaban et al., 1988; cholera toxin in the media; cited from earlier work
[5] = cAMP-elevating agents-deleted medium, epinephrine 1-3,000 ng/ml, α-MSH 1-1,000 ng/ml
[6] = growth factor-deleted medium, 1-1,000 ng/ml

Row | Compound | Melanin content/well versus control (epidermal melanocytes [1]; [5]) | Migration of epidermal melanocytes (epidermal melanocytes [2]) | Cell growth (cell number) versus control (epidermal melanocytes [3]; [5]) | Melanin content/well versus control (epidermal melanocytes [1]; [6]) | Migration cell number versus control (epidermal melanocytes [2]; 1-1,000 ng/ml, 6 hours) | Growth of cultured ocular melanocytes (ocular melanocytes) | Cell growth (cell number) versus control (epidermal melanocytes [3]; [6]) | Growth of cultured epidermal melanocytes (epidermal melanocytes [4])
1 | CNC[C@H](O)c1ccc(O)c(O)c1 [epinephrine, (L)-Epinephrine bitartrate] | significantly greater than that of the controls | stimulated the growth, melanogenesis and migration | dose dependent stimulation of cell growth |  |  |  |  | 
2 | HGF: hepatocyte growth factor, pleiotrophic growth factor (PeproTech) |  |  |  | significantly greater than that of the controls | dose dependent stimulation of migration | stimulates growth of cultured ocular melanocytes | dose dependent stimulation of cell growth | 
3 | bFGF: basic fibroblast growth factor (PeproTech) |  |  |  | did not show any significant influence on melanin content |  |  | dose dependent stimulation of cell growth | 
4 | α-MSH: tridecapeptide with a sequence identical to the first 13 amino acids of adrenocorticotropin (ACTH) (SYSMEHFRWGKPV; ends and bridges not checked; UniProt P01189 138-150, looked up) | significantly greater than that of the controls | stimulated the growth, melanogenesis and migration | dose dependent stimulation of cell growth |  |  |  |  | failed to stimulate growth
